The values below come from patent publication US9562035B2, “Benzamide derivative useful as FASN inhibitors for the treatment of cancer” (Janssen Pharmaceutica NV, priority 2013, dated 2017).

A value given as a limit tells only on which side of the number the result lay.

Assay [1] has as its target T1, hFASN enzyme (full length) (Homo sapiens, UniProt P49327).
T1 construct: 10 μL hFASN enzyme (full length, 300 ng, purified in house); made in house
The experiment in a line: Fatty Acid Synthase (FASN) Inhibition Scintillation Proximity Assay. Format: biochemical. Conditions: for IC50: mean where tested more than once, ~ = standard error of pIC50 larger than 0.5; for inhibition at 10 µM: read-out: FASN % Effect @1E−05M. In outline:
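Eight compound concentrations (0.01–30 μM) tested in pH 7.5 phosphate buffer with DTT; human full-length enzyme converted [3H]-acetyl-CoA plus malonyl-CoA, with NADPH, over 60 min at room temperature. Hydrophobic [3H]-palmitate detected by bead proximity scintillation imaging; control-normalised data fitted for IC50/pIC50.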
(In general: SPA uses beads or plates that emit light when radiolabelled molecules are held near them.)

Assay [2] addresses T2, FASN Keto-reductase Domain (Homo sapiens, UniProt P49327).
T2 construct: 10 μL hFASN enzyme (full length, 300 ng, purified in house) and 360 μM NADPH; made in house
Put plainly: Fatty Acid Synthase Keto-Reductase Domain (FASN KR) Inhibition. Format: biochemical. Conditions: mean where tested more than once; read-out: FASN K-R Domain pIC50 (converted). In short, it runs like this:
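Keto-reductase activity followed as NADPH consumption (A340 drop between 0 and 20 min, room temperature) using in-house full-length hFASN, 360 μM NADPH and ethyl acetoacetate substrate (180 mM stock), pH 7.5 phosphate buffer.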

The test system of assay [3] is A2780 ovarian cells. Put plainly: A2780 Ovarian Cell Proliferation Assay in Lipid Reduced Medium, without Palmitate. It is filed as cell-based. Conditions: Homo sapiens, A2780; lipid reduced medium, without palmitate, 96 h, MTT; read-out: Proliferation A2780 w/o Palmitate pIC50 (converted). In short, it runs like this: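 A2780 cells were seeded in 10% FCS medium and switched next day to 10% lipid-reduced serum without palmitate. Compounds at 0.01–30 μM were added with 0.2% DMSO, 0.2% fatty-acid-free BSA and 0.25% ethanol final. After 96 h, MTT absorbance at 544 nm was normalized to plate controls, and IC50/pIC50 came from a 4-parameter logistic fit.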

Assay [4] has as its system A2780 ovarian cells. The experiment in a line: A2780 Ovarian Cell Proliferation Assay in Lipid Reduced Medium, with Palmitate (control). Conditions: Homo sapiens, A2780; lipid reduced medium, 25 μM palmitate, 96 h, MTT; read-out: Proliferation A2780 with Palmitate pIC50 (converted). It is filed as cell-based. In outline: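 Read-out was MTT absorbance at 544 nm after 96 h at 37 °C. Cells grown overnight in RPMI1640/10% FCS were moved to 10% lipid-reduced serum with compound plus palmitate (final 25 μM, 0.2% fatty-acid-free BSA, 0.2% DMSO). IC50 came from least-squares curve fitting, expressed as −log(IC50).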

T2 sequence (P49327 whole entry, the tested form may be a part): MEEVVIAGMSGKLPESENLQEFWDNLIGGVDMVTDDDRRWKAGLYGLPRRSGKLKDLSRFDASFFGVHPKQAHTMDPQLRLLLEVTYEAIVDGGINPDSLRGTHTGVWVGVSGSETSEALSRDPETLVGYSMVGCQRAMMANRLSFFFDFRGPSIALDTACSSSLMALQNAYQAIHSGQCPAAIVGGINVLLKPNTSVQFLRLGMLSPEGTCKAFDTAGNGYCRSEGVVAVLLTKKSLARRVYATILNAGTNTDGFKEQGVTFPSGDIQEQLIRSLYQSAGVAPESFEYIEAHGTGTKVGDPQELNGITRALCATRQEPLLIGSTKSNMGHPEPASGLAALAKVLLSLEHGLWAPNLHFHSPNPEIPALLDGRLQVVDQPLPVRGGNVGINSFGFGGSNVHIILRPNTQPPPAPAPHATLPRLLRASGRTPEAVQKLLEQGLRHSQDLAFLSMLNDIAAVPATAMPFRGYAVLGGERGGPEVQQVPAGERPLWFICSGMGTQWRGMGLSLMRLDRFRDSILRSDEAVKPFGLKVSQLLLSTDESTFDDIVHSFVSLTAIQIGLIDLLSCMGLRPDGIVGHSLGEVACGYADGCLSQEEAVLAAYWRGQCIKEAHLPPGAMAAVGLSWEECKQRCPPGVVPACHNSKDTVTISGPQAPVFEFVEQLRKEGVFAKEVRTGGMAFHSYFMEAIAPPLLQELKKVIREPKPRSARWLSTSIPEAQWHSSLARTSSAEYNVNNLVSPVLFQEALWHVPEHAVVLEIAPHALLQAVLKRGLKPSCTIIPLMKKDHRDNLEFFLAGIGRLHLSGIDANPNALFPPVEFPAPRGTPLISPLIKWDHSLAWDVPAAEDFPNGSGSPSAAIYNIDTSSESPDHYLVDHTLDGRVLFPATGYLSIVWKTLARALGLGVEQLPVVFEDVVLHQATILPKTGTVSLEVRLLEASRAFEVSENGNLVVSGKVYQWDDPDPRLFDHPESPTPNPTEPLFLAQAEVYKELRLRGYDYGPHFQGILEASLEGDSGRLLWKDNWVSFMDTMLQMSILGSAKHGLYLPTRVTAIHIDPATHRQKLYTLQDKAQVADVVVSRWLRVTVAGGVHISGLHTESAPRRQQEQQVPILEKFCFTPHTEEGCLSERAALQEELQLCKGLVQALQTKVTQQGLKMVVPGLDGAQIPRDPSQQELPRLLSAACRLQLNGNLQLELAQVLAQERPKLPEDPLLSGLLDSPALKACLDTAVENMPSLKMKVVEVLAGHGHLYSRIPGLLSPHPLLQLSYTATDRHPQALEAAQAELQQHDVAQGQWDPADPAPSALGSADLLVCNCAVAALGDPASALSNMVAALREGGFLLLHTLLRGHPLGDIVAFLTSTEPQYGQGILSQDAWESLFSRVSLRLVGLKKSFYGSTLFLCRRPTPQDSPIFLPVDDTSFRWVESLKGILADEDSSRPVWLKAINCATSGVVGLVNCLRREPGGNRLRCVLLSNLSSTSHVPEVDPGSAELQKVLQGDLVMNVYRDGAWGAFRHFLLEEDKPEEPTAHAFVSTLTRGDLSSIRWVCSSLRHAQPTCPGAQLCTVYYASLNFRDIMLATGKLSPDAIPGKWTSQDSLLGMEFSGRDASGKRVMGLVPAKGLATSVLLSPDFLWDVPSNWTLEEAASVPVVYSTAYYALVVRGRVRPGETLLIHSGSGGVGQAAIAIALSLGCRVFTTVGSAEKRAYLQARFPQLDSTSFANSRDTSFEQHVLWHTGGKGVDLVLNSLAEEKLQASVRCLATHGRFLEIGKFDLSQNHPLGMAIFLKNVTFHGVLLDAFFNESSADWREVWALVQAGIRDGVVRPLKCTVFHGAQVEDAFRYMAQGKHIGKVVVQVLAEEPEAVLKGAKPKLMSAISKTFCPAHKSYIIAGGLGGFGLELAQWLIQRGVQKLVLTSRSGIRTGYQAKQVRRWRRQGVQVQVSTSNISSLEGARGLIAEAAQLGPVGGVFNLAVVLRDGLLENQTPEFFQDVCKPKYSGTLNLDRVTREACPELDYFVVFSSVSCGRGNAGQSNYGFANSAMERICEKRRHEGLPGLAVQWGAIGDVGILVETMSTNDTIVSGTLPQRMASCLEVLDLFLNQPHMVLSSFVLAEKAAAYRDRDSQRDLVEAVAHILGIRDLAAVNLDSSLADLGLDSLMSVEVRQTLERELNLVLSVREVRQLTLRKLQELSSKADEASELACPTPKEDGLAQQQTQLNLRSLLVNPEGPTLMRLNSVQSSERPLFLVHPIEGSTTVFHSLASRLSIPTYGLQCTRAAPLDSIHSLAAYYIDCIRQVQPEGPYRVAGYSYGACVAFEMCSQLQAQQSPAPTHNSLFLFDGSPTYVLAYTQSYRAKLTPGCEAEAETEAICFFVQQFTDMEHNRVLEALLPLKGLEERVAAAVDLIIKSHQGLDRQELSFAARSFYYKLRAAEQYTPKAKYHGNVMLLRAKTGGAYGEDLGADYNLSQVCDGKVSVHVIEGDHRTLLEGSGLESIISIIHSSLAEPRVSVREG
T1 sequence (P49327 whole entry): as the sequence (P49327 whole entry, the tested form may be a part) above

With `Cc1ccc(C(=O)N2CCC(c3ccc4c(c3)NC(=O)CC4)CC2)cc1NC(=O)c1ccc(Cl)nc1` [Compound 23, 6-chloro-N-(2-methyl-5-(4-(2-oxo-1,2,3,4-tetrahydroquinolin-7-yl)piperidine-1-carbonyl)phenyl)nicotinamide], the IC50 in assay [1] was 589 nM; in assay [2] it was 1170 nM; in the assay with A2780 ovarian cells [3] it was 1120 nM; in the assay with A2780 ovarian cells [4], around 10000 nM. Also, in assay [1], the inhibition at 10 µM turned out to be 93%.
On to `Cc1ccc(C(=O)N2CCC(c3ccc(-c4cccc(F)c4)cc3)CC2)cc1NC(=O)c1ccc(NC(C)C)nc1` [Compound 230, N-(5-(4-(3′-fluoro-[1,1′-biphenyl]-4-yl)piperidine-1-carbonyl)-2-methylphenyl)-6-(isopropylamino)nicotinamide], for which the IC50 in assay [1] was 363 nM; in assay [2], 525 nM; in the assay on A2780 ovarian cells [3], 692 nM; in the assay on A2780 ovarian cells [4], 2510 nM. For the same compound, the inhibition at 10 µM in assay [1] came to 79%.
As for `CC(C)Nc1ccc(C(=O)Nc2cc(C(=O)N3CC(c4ccc(-c5ccnn5C)cc4)C3)ccc2Cl)cn1` [Compound 108, N-(2-chloro-5-(3-(4-(1-methyl-1H-pyrazol-5-yl)phenyl)azetidine-1-carbonyl)phenyl)-6-(isopropylamino)nicotinamide], the IC50 in assay [1] is 36.3 nM; in assay [2], 60.3 nM; in the assay on A2780 ovarian cells [3], 93.3 nM; in the assay on A2780 ovarian cells [4], around 407 nM. Besides, the inhibition at 10 µM in assay [1] amounted to 103%.
Regarding `Cc1ccc(C(=O)N2CCC(c3ccc(-n4ccnc4)cc3)C(C)(C)C2)cc1NC(=O)c1ccc(Cl)nc1` (stereo not shown) [Compound #6, N-(5-(4-(4-(1H-imidazol-1-yl)phenyl)-3,3-dimethylpiperidine-1-carbonyl)-2-methylphenyl)-6-chloronicotinamide], the IC50 in assay [1] was 61.7 nM; in assay [2], 89.1 nM; in the assay with A2780 ovarian cells [3], 234 nM; with A2780 ovarian cells [4], above 10000 nM. Also, the inhibition at 10 µM in assay [1] amounted to 104%.
For the compound `Cc1ccc(C(=O)N2CCC(c3ccc(-c4cnn(C)c4)nc3)CC2)cc1NC(=O)c1ccc(Cl)nc1` [Compound 270, 6-chloro-N-(2-methyl-5-(4-(6-(1-methyl-1H-pyrazol-4-yl)pyridin-3-yl)piperidine-1-carbonyl)phenyl)nicotinamide], the IC50 in assay [1] is 589 nM; in assay [2], 2750 nM; in the assay with A2780 ovarian cells [3], 1480 nM; in the assay on A2780 ovarian cells [4], above 10000 nM. Besides, the inhibition at 10 µM in assay [1] stood at 93%.
As to `Cc1ccc(C(=O)N2CCC(c3ccc(-c4ccc(F)cc4)cc3)CC2)cc1NC(=O)c1ccc(NC(C)C)nc1` [Compound 250, N-(5-(4-(4′-fluoro-[1,1′-biphenyl]-4-yl)piperidine-1-carbonyl)-2-methylphenyl)-6-(isopropylamino)nicotinamide], the IC50 in assay [1] was 229 nM; in assay [2], 209 nM; in the assay with A2780 ovarian cells [3], 490 nM; in the assay on A2780 ovarian cells [4] it was 1620 nM. In addition, the inhibition at 10 µM in assay [1] amounted to 65%.
With `Cc1ccc(C(=O)N2CCC(c3ccc(-c4cnn(C)c4)cc3)CC2)cc1NC(=O)c1ccc(N(C)C)cn1` [Compound 119, 5-(dimethylamino)-N-(2-methyl-5-(4-(4-(1-methyl-1H-pyrazol-4-yl)phenyl)piperidine-1-carbonyl)phenyl)picolinamide], the IC50 was 64.6 nM in assay [1], 141 nM in assay [2], 191 nM with A2780 ovarian cells [3] and 6460 nM in the assay on A2780 ovarian cells [4]. In addition, the inhibition at 10 µM in assay [1] worked out at 98%.
As to `COc1ccc(C(=O)Nc2cc(C(=O)N3CC(c4ccc(-c5cnn(C)c5)cc4)C3)ccc2C)cc1` [Compound #83, 4-methoxy-N-(2-methyl-5-(3-(4-(1-methyl-1H-pyrazol-4-yl)phenyl)azetidine-1-carbonyl)phenyl)benzamide], the IC50 in assay [1] was 16.2 nM; in assay [2] it was 45.7 nM; in the assay with A2780 ovarian cells [3] it was 74.1 nM; in the assay on A2780 ovarian cells [4], above 10000 nM. The inhibition at 10 µM in assay [1] was 109%.
